Measured values taken from patent US11377393B2, “Method and composition for improving plant growth” (DANSTAR FERMENT AG, priority 2016, dated 2022).

Tested on: triticale (var. Bellac)
Assay: Effect of inactive yeast and/or yeast derivatives in combination with nitrogen sources on plant growth (pot test, dry weight of aerial parts)
Format: in vivo
Conditions: triticale seeds in 20 g soil, 30 days, nitrogen 15 kg/ha, applied liquid to soil, letters = significance groups (p<0,1 Dunnett)
Description: Seeds of triticale (var. Bellac) coated with insectide Gaucho 350 and fungicide Rédigo® (Bayer) were used in the study. The tested nitrogenous components were the following: urea and calcium nitrate.
Two seeds were grown in individual plastic pots or cells containing equal quantity of soil (20 g). The treatments T1 to T4, T6, T7, T9, T10 and T13 (see Table 1) were distributed randomly in lines, with each line comprising of all treatments. Treatments T1 to T4, T6, T7, T9, T10 and T13 were repeated seven times and the experiment was repeated twice over time.
The treatments T1 to T4, T6, T7, T9, T10 and T13 were applied, in a liquid form, directly in the soil surrounding the seeds. The treatments were mixed with sterile distilled water in a total 5 ml samples. For the negative control, 5 ml of sterile distilled water was added. Seeds were grown under controlled conditions for 30 days. Growth conditions were 18/15 C for 10/14 hours (day/night) and 70% RH. Growth measurements were taken by measuring length and dry weight of the aerial part of the plants.
The growth in weight of the plants (the dry weight of the aerial parts) for each treatment was compared by statistical analysis.

How did the “Dry weight gain average” value (Table 5, urea series) turn out when NC(N)=O [Treatment T3, Urea] was run?
Its value is 0.153bc.

For O=[N+]([O-])[O-].O=[N+]([O-])[O-].[Ca+2] [Treatment T4, Calcium nitrate], which “Dry weight gain average” value (Table 4, calcium nitrate series) is on record?
Its value is 0.106b.
